Data: US12559529B2, “NPY2 receptor agonists” (Boehringer Ingelheim International GmbH, priority 2019, dated 2026)
*1 amine or outer side, *2 acyl side, *3 side chain or, on linkers, in order; H or OH if unused. Where a SMILES comes first, the peptide text is derived from it. Side-chain parts run from the residue outwards. The star is where a group is joined. C18 diacid = O=C(O)CCCCCCCCCCCCCCCCC(=O)*; γGlu = O=C(O)[C@H](CCC(=O)[*:2])N[*:1]; Isovaleryl = CC(C)CC(=O)*; AEEA = NCCOCCOCC(=O)O

Target: T1, Human Neuropeptide Y2 Receptor (Homo sapiens, UniProt P49146)
T1 construct: purchased CHEMICON HTS066M
T1 sequence (P49146 1-381): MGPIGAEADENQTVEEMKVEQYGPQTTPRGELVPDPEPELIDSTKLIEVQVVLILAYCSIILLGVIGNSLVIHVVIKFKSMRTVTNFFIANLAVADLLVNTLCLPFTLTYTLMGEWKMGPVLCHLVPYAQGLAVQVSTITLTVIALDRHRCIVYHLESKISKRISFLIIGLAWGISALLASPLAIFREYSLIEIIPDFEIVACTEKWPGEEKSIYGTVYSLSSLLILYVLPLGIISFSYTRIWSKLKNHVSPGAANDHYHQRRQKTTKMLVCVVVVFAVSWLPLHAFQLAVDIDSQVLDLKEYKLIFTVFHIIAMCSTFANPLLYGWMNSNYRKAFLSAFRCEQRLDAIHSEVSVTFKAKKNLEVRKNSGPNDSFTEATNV
Assay: Radioligand binding competition assay (RLB)
Conditions: Table 3; human 125I-PYY (1-36) 0.02 nM, Y2 receptor membranes; read-out: Ki
Summary of the method: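 Membranes from cells expressing human Y2 receptor (0.5 μg protein/well) were incubated with radioligand and serially diluted peptides in 50 mM HEPES, 5 mM MgCl2, 1 mM CaCl2, 0.2% ovalbumin, pH 7.4, for 2 h at room temperature with shaking. Bound radioactivity was collected by filtration and counted; IC50 from sigmoidal nonlinear regression.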

## CC(C)CC(=O)N[C@@H](C)C(=O)N1CCC[C@H]1C(=O)N[C@@H](CCC(=O)O)C(=O)N[C@@H](CCCCNC(=O)COCCOCCNC(=O)COCCOCCNC(=O)CC[C@H](NC(=O)CCCCCCCCCCCCCCCCC(=O)O)C(=O)O)C(=O)N1CCC[C@H]1C(=O)N[C@@H](CCC(=O)O)C(=O)N[C@@H](CCC(=O)O)C(=O)N[C@@H](CC(=O)O)C(=O)N[C@@H](C)C(=O)N[C@@H](CO)C(=O)N1CCC[C@H]1C(=O)N[C@@H](CCC(=O)O)C(=O)N[C@@H](CCC(=O)O)C(=O)N[C@H](C(=O)N[C@@H](CCC(N)=O)C(=O)N[C@@H](CCCCN)C(=O)N[C@@H](Cc1ccc(O)cc1)C(=O)N[C@@H](Cc1ccc(O)cc1)C(=O)N[C@H](C(=O)N[C@@H](CO)C(=O)N[C@@H](CC(C)C)C(=O)N[C@@H](CCCNC(=N)N)C(=O)N[C@@H](Cc1c[nH]cn1)C(=O)N[C@@H](Cc1ccc(O)cc1)C(=O)N[C@@H](Cc1ccc(O)cc1)C(=O)N[C@@H](CC(N)=O)C(=O)N[C@@H](Cc1c[nH]c2ccccc12)C(=O)N[C@@H](CC(C)C)C(=O)N[C@H](C(=O)N[C@@H](CCCNC(=N)N)C(=O)N[C@@H](CCC(N)=O)C(=O)N[C@@H](CCCNC(=N)N)C(=O)N[C@@H](Cc1ccc(O)cc1)C(N)=O)[C@@H](C)O)C(C)C)[C@@H](C)O [Compound 147, N{alpha-4}-(3-methylbutanoyl)-N{epsilon-7}-[2-(2-{2-[2-(2-{2-[(4S)-4-carboxy-4-(17-carboxyheptadecanamido)butanamido]ethoxy}ethoxy)acetamido]ethoxy}ethoxy)acetamido]-[4A,7K,9E,17T,18Q,19K,22V,28Y,30W,31L]hPYY (4-36)]
  Ki: 1.19 nM

## CC(C)CC(=O)N[C@@H](C)C(=O)N1CCC[C@H]1C(=O)N[C@@H](CCC(=O)O)C(=O)N[C@@H](CCCCNC(=O)COCCOCCNC(=O)COCCOCCNC(=O)CC[C@H](NC(=O)CCCCCCCCCCCCCCCCC(=O)O)C(=O)O)C(=O)N1CCC[C@H]1C(=O)N[C@@H](CCC(=O)O)C(=O)N[C@@H](CCC(=O)O)C(=O)N[C@@H](C)C(=O)N[C@@H](C)C(=O)N[C@@H](CO)C(=O)N1CCC[C@H]1C(=O)N[C@@H](CCC(=O)O)C(=O)N[C@@H](CCC(=O)O)C(=O)N[C@@H](CC(C)C)C(=O)N[C@@H](CCC(N)=O)C(=O)N[C@@H](CCCNC(=N)N)C(=O)N[C@@H](Cc1ccc(O)cc1)C(=O)N[C@@H](Cc1ccc(O)cc1)C(=O)N[C@H](C(=O)N[C@@H](CCC(=O)O)C(=O)N[C@@H](CC(C)C)C(=O)N[C@@H](CCCNC(=N)N)C(=O)N[C@@H](Cc1c[nH]cn1)C(=O)N[C@@H](Cc1ccc(O)cc1)C(=O)N[C@@H](Cc1ccc(O)cc1)C(=O)N[C@@H](CC(N)=O)C(=O)N[C@@H](Cc1c[nH]c2ccccc12)C(=O)N[C@@H](CC(C)C)C(=O)N[C@H](C(=O)N[C@@H](CCCNC(=N)N)C(=O)N[C@@H](CCC(N)=O)C(=O)N[C@@H](CCCNC(=N)N)C(=O)N[C@@H](Cc1ccc(O)cc1)C(N)=O)[C@@H](C)O)C(C)C [Compound 149, N{alpha-4}-(3-methylbutanoyl)-N{epsilon-7}-[2-(2-{2-[2-(2-{2-[(4S)-4-carboxy-4-(17-carboxyheptadecanamido)butanamido]ethoxy}ethoxy)acetamido]ethoxy}ethoxy)acetamido]-[4A,7K,9E,11A,18Q,22V,23E,28Y,30W,31L]hPYY (4-36)]
  Ki: 2.75 nM

## CC[C@H](C)[C@H](NC(=O)[C@H](CCC(=O)O)NC(=O)[C@H](CCC(=O)O)NC(=O)[C@@H]1CCCN1C(=O)[C@H](CO)NC(=O)[C@H](C)NC(=O)[C@H](CC(=O)O)NC(=O)[C@H](CCC(=O)O)NC(=O)[C@H](CCC(=O)O)NC(=O)[C@H](C)NC(=O)[C@H](CCCCNC(=O)COCCOCCNC(=O)COCCOCCNC(=O)CC[C@H](NC(=O)CCCCCCCCCCCCCCCCC(=O)O)C(=O)O)NC(=O)[C@H](CCC(=O)O)NC(=O)[C@@H]1CCCN1C(=O)[C@H](C)NC(=O)CC(C)C)C(=O)N[C@@H](CCC(N)=O)C(=O)N[C@@H](CCCNC(=N)N)C(=O)N[C@@H](Cc1ccc(O)cc1)C(=O)N[C@@H](Cc1ccc(O)cc1)C(=O)N[C@H](C(=O)N[C@@H](CO)C(=O)N[C@@H](CC(C)C)C(=O)N[C@@H](CCCNC(=N)N)C(=O)N[C@@H](Cc1c[nH]cn1)C(=O)N[C@@H](Cc1ccc(O)cc1)C(=O)N[C@@H](Cc1ccc(O)cc1)C(=O)N[C@@H](CC(N)=O)C(=O)N[C@@H](Cc1c[nH]c2ccccc12)C(=O)N[C@@H](CC(C)C)C(=O)N[C@H](C(=O)N[C@@H](CCCNC(=N)N)C(=O)N[C@@H](CCC(N)=O)C(=O)N[C@@H](CCCNC(=N)N)C(=O)N[C@@H](Cc1ccc(O)cc1)C(N)=O)[C@@H](C)O)C(C)C [Compound 152, N{alpha-4}-(3-methylbutanoyl)-N{epsilon-7}-[2-(2-{2-[2-(2-{2-[(4S)-4-carboxy-4-(17-carboxyheptadecanamido)butanamido]ethoxy}ethoxy)acetamido]ethoxy}ethoxy)acetamido]-[4A,7K,8A,9E,17I,18Q,22V,28Y,30W,31L]hPYY (4-36)]
  Ki: 5.18 nM

## CC(C)CC(=O)N[C@@H](C)C(=O)N1CCC[C@H]1C(=O)N[C@@H](CCC(=O)O)C(=O)N[C@@H](CCCCNC(=O)COCCOCCNC(=O)COCCOCCNC(=O)CC[C@H](NC(=O)CCCCCCCCCCCCCCCCC(=O)O)C(=O)O)C(=O)N[C@H](C(=O)N[C@@H](CCC(=O)O)C(=O)N[C@@H](CCC(=O)O)C(=O)N[C@@H](CCC(=O)O)C(=O)N[C@@H](C)C(=O)N[C@@H](CO)C(=O)N1CCC[C@H]1C(=O)N[C@@H](CCC(=O)O)C(=O)N[C@@H](CCC(=O)O)C(=O)N[C@@H](CC(C)C)C(=O)N[C@@H](CCC(N)=O)C(=O)N[C@@H](CCCNC(=N)N)C(=O)N[C@@H](Cc1ccc(O)cc1)C(=O)N[C@@H](Cc1ccc(O)cc1)C(=O)N[C@H](C(=O)N[C@@H](CO)C(=O)N[C@@H](CC(C)C)C(=O)N[C@@H](CCCNC(=N)N)C(=O)N[C@@H](Cc1c[nH]cn1)C(=O)N[C@@H](Cc1ccc(O)cc1)C(=O)N[C@@H](Cc1ccc(O)cc1)C(=O)N[C@@H](CC(N)=O)C(=O)N[C@@H](Cc1c[nH]c2ccccc12)C(=O)N[C@@H](CC(C)C)C(=O)N[C@H](C(=O)N[C@@H](CCCNC(=N)N)C(=O)N[C@@H](CCC(N)=O)C(=O)N[C@@H](CCCNC(=N)N)C(=O)N[C@@H](Cc1ccc(O)cc1)C(N)=O)[C@@H](C)O)C(C)C)C(C)C [Compound 153, N{alpha-4}-(3-methylbutanoyl)-N{epsilon-7}-[2-(2-{2-[2-(2-{2-[(4S)-4-carboxy-4-(17-carboxyheptadecanamido)butanamido]ethoxy}ethoxy)acetamido]ethoxy}ethoxy)acetamido]-[4A,7K,8V,9E,11E,18Q,22V,28Y,30W,31L]hPYY (4-36)] (Isovaleryl-APEK([AEEA-AEEA-γGlu-C18 diacid])VEEEASPEELQRYYVSLRHYYNWLTRQRY-NH2)
  Ki: 14.4 nM

## CC(C)CC(=O)N[C@@H](C)C(=O)N1CCC[C@H]1C(=O)N[C@@H](CCC(=O)O)C(=O)N[C@@H](CCCCNC(=O)COCCOCCNC(=O)COCCOCCNC(=O)CC[C@H](NC(=O)CCCCCCCCCCCCCCCCC(=O)O)C(=O)O)C(=O)N1CCC[C@H]1C(=O)N[C@@H](CCC(=O)O)C(=O)N[C@@H](CCC(=O)O)C(=O)N[C@@H](CC(=O)O)C(=O)N[C@@H](C)C(=O)N[C@@H](CO)C(=O)N1CCC[C@H]1C(=O)N[C@@H](CCC(=O)O)C(=O)N[C@@H](CCC(=O)O)C(=O)N[C@H](C(=O)N[C@@H](CCC(N)=O)C(=O)N[C@@H](CCCNC(=N)N)C(=O)N[C@@H](Cc1ccc(O)cc1)C(=O)N[C@@H](Cc1ccc(O)cc1)C(=O)N[C@H](C(=O)N[C@@H](CO)C(=O)N[C@@H](CC(C)C)C(=O)N[C@@H](CCCNC(=N)N)C(=O)N[C@@H](Cc1c[nH]cn1)C(=O)N[C@@H](Cc1ccc(O)cc1)C(=O)N[C@@H](Cc1ccc(O)cc1)C(=O)N[C@@H](CC(N)=O)C(=O)N[C@@H](Cc1c[nH]c2ccccc12)C(=O)N[C@@H](CC(C)C)C(=O)N[C@H](C(=O)N[C@@H](CCCNC(=N)N)C(=O)N[C@@H](CCC(N)=O)C(=O)N[C@@H](CCCNC(=N)N)C(=O)N[C@@H](Cc1ccc(O)cc1)C(N)=O)[C@@H](C)O)C(C)C)[C@@H](C)O [Compound 155, N{alpha-4}-(3-methylbutanoyl)-N{epsilon-7}-[2-(2-{2-[2-(2-{2-[(4S)-4-carboxy-4-(17-carboxyheptadecanamido)butanamido]ethoxy}ethoxy)acetamido]ethoxy}ethoxy)acetamido]-[4A,7K,9E,17T,18Q,22V,28Y,30W,31L]hPYY (4-36)]
  Ki: 2.05 nM
